The values below are quoted from earlier work in US9365837B2, “Peptide inhibitors of protein kinase C” (The Board of Trustees of the Leland Stanford Junior …, priority 2002, dated 2016).

In the series the test system is Sprague-Dawley rats. As to conditions: previously identified active in the assay.

As to “EAIVKQ (fragment derived from SEQ ID NO32) [SEQ ID NO:37, positive control εPKC antagonist, excluded from the peptides of the invention]”, the “activity in the capsaicin assay (positive control)” value is “active”.
